Results from patent US20260076909A1, “SOLID COMPOSITION AND METHOD FOR PRODUCING THE SAME” (DKS Co. Ltd., priority 2022, published 2026).

What was measured:
Dissolution test 2 = format: physicochemical; settings: composition with 0.4 mg cannabidiol in 45 g ion-exchanged water, 0.45 μm filtrate
Experimental: In a 50 mL screw vial, such a solid composition including 0.4 mg of cannabidiol was dissolved in 45 g of ion-exchanged water. The resultant solution was filtered through a 0.45 μm membrane filter; the filtrate was diluted two-fold with ethanol and further filtered through a 0.20 μm membrane filter; HPLC was performed to quantify the cannabidiol. The value was rounded to two decimal places to determine the dissolution amount. The 0.45 μm membrane filter, the 0.20 μm membrane filter, and the HPLC conditions were as described in the dissolution test 1.

[1] = Oral absorption evaluation: animal experiment; format: in vivo; settings: male SD rats, 30 mg/kg in terms of cannabidiol, 0.5-24 hours, highest AUC of three rats
Experimental: Of the three rats, data of the highest AUC was employed.
In the LC-MS/MS measurement, as a pre-treatment, 20 μL of the plasma sample and 80 μL of methanol were placed into an Eppendorf tube and suspended for deproteinization. After the proteins were precipitated in a centrifuge, the supernatant was subjected to centrifugal filtration using a filter (manufactured by Millipore, Ultrafree-MC, Hydrophilic PTFE membrane, 0.2 μm). This solution and ultrapure water were mixed together in 1:1 (mass ratio), and used as the measurement sample. The measurement conditions of LC-MS/MS were column: octadecylsilyl column, ion source: ESI+, mobile phase: solution mixture of methanol/10 mM aqueous ammonium formate solution.
The solid composition of Example 5 was evaluated for oral absorption by an animal experiment similar to that for the solid composition of Example 3. Specifically, while the powder composed only of cannabidiol in Comparative Example 1 was used as the control, the animal experiment was performed in accordance with the above-described oral absorption evaluation method.

[2] = Dissolution test 1: dissolution amount; format: physicochemical; settings: cannabidiol; 8 mg in capsule, 900 mL ion-exchanged water, 37° C., 0.45 μm filtrate
Experimental: As the dissolution testing apparatus, an “NTR-6600AST” manufactured by Toyama Sangyo Co., Ltd. was used; the vessel was charged with 900 mL of ion-exchanged water; for the purpose of degassing, the water was stirred overnight at a water temperature of 37° C.±0.2° C. A gelatin capsule (“HF capsule” manufactured by Matsuya Corporation) filled with the solid composition containing 8 mg of the cannabidiol was placed into a sinker, and immersed into the vessel. After a lapse of a predetermined time, sampling was performed in the vessel and the sample was filtered through a 0.45 μm membrane filter. […] The filtrate was diluted two-fold with ethanol and filtered through a 0.20 μm membrane filter; HPLC was performed to quantify the cannabidiol. For each solid composition, two samples were tested and the resultant values were averaged; the average was rounded to two decimal places to determine the dissolution amount.
The 0.45 μm membrane filter employed was “25HP045AN” (filter material: PTFE, pore size: 0.45 μm) manufactured by ADVANTEC. The 0.20 μm membrane filter employed was “13HP020AN” (filter material: PTFE, pore size: 0.20 μm) manufactured by ADVANTEC.
The HPLC conditions were column: octadecylsilyl column, solvent: mixed solution of acetonitrile/10 mM aqueous ammonium acetate solution, and wavelength: 210 nm. […]

[3] = Amorphization evaluation: XRD; format: physicochemical
Experimental: A “RINT UltimaIII horizontal goniometer (D/teX-25)” manufactured by Rigaku Corporation was used to obtain the XRD chart of such a solid composition. The XRD measurement conditions were the focusing method, X-ray: Cu/40 kV/40 mA, scanning range: 3.0° to 50.0°, and scanning axis: 2θ/θ.

SMILES: C=C(C)[C@@H]1CCC(C)=C[C@H]1c1c(O)cc(CCCCC)cc1O [Comparative Example 1, cannabidiol]
- Dissolution test 2 dissolution amount (Dissolution test 2): 0.03 µg/mL
- AUC (area under the blood concentration time curve) of the cannabidiol ([1]; 30 mg/kg): 665 ng·h/mL
- AUC ([1]; rat, plasma, read-out: AUC (area under the blood concentration time curve) of the cannabidiol): 812 ng·h/mL
- Dissolution amount after lapse of 120 minutes [2]: 0.01 µg/mL
- Dissolution amount after lapse of 240 minutes [2]: 0.01 µg/mL
- Form of the cannabinoid from the XRD chart (in words) [3]: crystalline state
